Assays:
[1] = Stability of creatyl-L-glutamine formulations on storage in glass vials, HPLC assay of C-L-G and creatinine; type: physicochemical
Protocol: Specifically exemplified herein are three different formulations prepared using stable creatyl-L-glutamine (C-L-G) at a concentration of 1.00 mg/ml between pH 3.0 to 7.0. These formulations are described below.
The above described formulations were stored in glass vials at room temperature (25° C., 77° F.), at refrigerator temperature (4° C., 39° F.) and at elevated temperature (40° C., 104° F.) in vials. These samples were assayed by HPLC at periodic intervals for minimum of 60 days for creatyl-L-glutamine (C-L-G) and creatinine (degradation product of creatine) content. The % recovery results are presented below.

[2] = system: highly trained adolescent (mean age 16) fin swimmers; conditions: five days of supplementation; cited from earlier work
[3] = system: small cohorts of athletes; conditions: oral; short term (5 days), medium term (9 weeks) and long term (up to 5 years); cited from earlier work
[4] = system: young adult, vegetarian subjects; conditions: oral, 5 grams daily for six weeks, 45 subjects; cited from earlier work
[5] = system: patients with McArdle disease; conditions: cited from earlier work
[6] = system: Division IA college football players; conditions: up to 21-months; 15.75 g/day for five days, average 5 g/day thereafter; cited from earlier work
[7] = cited from earlier work
[8] = system: person with myasthenia gravis; conditions: 5 grams daily with resistance training 3× per week for 15 weeks; cited from earlier work
[9] = cited from earlier work; remark: listed apart in the source
[10] = Conversion of creatine to creatinine in aqueous solutions; type: physicochemical; conditions: aqueous solution 0.250 mg/mL
[11] = system: patients with idiopathic PD; conditions: 20 g/d for the first 5 days and 5 g/d thereafter, 24 sessions of resistance training; cited from earlier work

In the case of `CN(CC(=O)N[C@@H](CCC(N)=O)C(=O)O)C(=N)N` [creatyl-L-glutamine], the “time composition is stable” value ([1]; elevated temperature (40° C., 104° F.)) was “more than 30 days”, the “time aqueous solutions remain stable” value ([1]; refrigerator temperature (4° C., 39° F.)) was “more than 90 days” and the “time aqueous solutions remain stable” value ([1]; room temperature (25° C., 77° F.)) was “more than 90 days”.

In the case of `CN(CC(=O)O)C(=N)N` [creatine, 2-(carbamimidoyl-methyl-amino) acetic acid], the dynamic strength [2] is listed as “enhances”, the “performance in consecutive maximal swims” value [2] is listed as “improves” and the “adverse effects on renal function” value [3] is listed as “No adverse effects”. The “intelligence (Raven's Advanced Progressive Matrices)” value [4] was “significantly improves”, the “working memory (backward digit span)” value [4] was “significantly improves” and the skeletal muscle function [5] was “improves”. For the same compound, the “adverse effect in long-term supplementation” value [6] was “No adverse effect”, the “degradation in the GI tract into creatinine, estimated rate” value ([7]; GI tract) was ~0.1 g of a 5 g dose per hour and the “non-enzymatic conversion into creatinine” value ([7]; typical 70 kg individual) was “approximately 1.7 % daily”. For the same compound, the improved peak strength [8] was “up to 37%”, the “increase in body weight” value [8] was 7% and the “increase in fat free mass” value [8] was 4%. For the same compound, the “average increase in muscle strength, greater than following placebo ingestion” value ([9]; 22 published studies, during resistance training) was 8%, the “average increase in muscle strength following creatine supplementation during resistance training” value ([9]; 22 published studies, placebo 12%) was 20% and the “average increase in weightlifting performance, greater than following placebo ingestion” value ([9]; during resistance training) was 14%. For the same compound, the “average increase in weightlifting performance (maximal repetitions at a given percent of maximal strength)” value ([9]; during resistance training, placebo 12%) was 26% and the adverse health effect ([9]; short- or long-term creatine supplementations) was “no adverse health effect”.

For “disodium creatine phosphate tetrahydrate”, the “Creatine Monohydrate” value ([10]; pH 3.0, 25 C.°, 39 Days) was 0.031 mg/mL, the Creatinine ([10]; pH 3.0, 25 C.°, 39 Days) was 0.069 mg/mL and the “Creatine Monohydrate” value ([10]; pH 3.0, 25 C.°, 3 day) was 0.095 mg/mL. The Creatinine ([10]; pH 3.0, 25 C.°, 3 day) was 0.014 mg/mL, the “Creatine Monohydrate” value ([10]; pH 3.0, 25 C.°, 10 days) was 0.092 mg/mL and the Creatinine ([10]; pH 3.0, 25 C.°, 10 days) was 0.034 mg/mL. For the same compound, the “Creatine Monohydrate” value ([10]; pH 3.0, 25 C.°, 21 days) was 0.065 mg/mL, the Creatinine ([10]; pH 3.0, 25 C.°, 21 days) was 0.050 mg/ml mg/mL and the “Creatine Monohydrate” value ([10]; pH 3.0, 25 C.°, INITIAL) was 0.000 mg/ml mg/mL. For the same compound, the Creatinine ([10]; pH 3.0, 25 C.°, INITIAL) was 0.000 mg/mL, the “Creatine Monohydrate” value ([10]; pH 3.0, 40 C.°, 39 Days) was 0.012 mg/ml mg/mL and the Creatinine ([10]; pH 3.0, 40 C.°, 39 Days) was 0.081 mg/mL. The “Creatine Monohydrate” value ([10]; pH 3.0, 40 C.°, 3 day) was 0.042 mg/mL, the Creatinine ([10]; pH 3.0, 40 C.°, 3 day) was 0.054 mg/mL and the “Creatine Monohydrate” value ([10]; pH 3.0, 40 C.°, 10 days) was 0.017 mg/mL. The Creatinine ([10]; pH 3.0, 40 C.°, 10 days) was 0.086 mg/mL, the “Creatine Monohydrate” value ([10]; pH 3.0, 40 C.°, 21 days) was 0.011 mg/mL and the Creatinine ([10]; pH 3.0, 40 C.°, 21 days) was 0.080 mg/ml mg/mL. For the same compound, the “Creatine Monohydrate” value ([10]; pH 3.0, 40 C.°, INITIAL) was 0.004 mg/mL, the Creatinine ([10]; pH 3.0, 40 C.°, INITIAL) was 0.000 mg/mL and the “Creatine Monohydrate” value ([10]; pH 7.0, 25 C.°, 39 Days) was 0.089 mg/mL. The Creatinine ([10]; pH 7.0, 25 C.°, 39 Days) was 0.000 mg/mL, the Creatinine ([10]; pH 7.0, 25 C.°, 3 day) was 0.000 mg/mL and the “Creatine Monohydrate” value ([10]; pH 7.0, 25 C.°, 10 days) was 0.041 mg/mL. For the same compound, the Creatinine ([10]; pH 7.0, 25 C.°, 10 days) was 0.000 mg/mL, the “Creatine Monohydrate” value ([10]; pH 7.0, 25 C.°, 21 days) was 0.069 mg/mL and the Creatinine ([10]; pH 7.0, 25 C.°, 21 days) was 0.000 mg/ml mg/mL. The “Creatine Monohydrate” value ([10]; pH 7.0, 25 C.°, INITIAL) was 0.00 mg/mL, the Creatinine ([10]; pH 7.0, 25 C.°, INITIAL) was 0.000 mg/mL and the “Creatine Monohydrate” value ([10]; pH 7.0, 40 C.°, 39 Days) was 0.108 mg/mL. The Creatinine ([10]; pH 7.0, 40 C.°, 39 Days) was 0.030 mg/mL, the “Creatine Monohydrate” value ([10]; pH 7.0, 40 C.°, 3 day) was 0.042 mg/mL and the Creatinine ([10]; pH 7.0, 40 C.°, 3 day) was 0.004 mg/mL. The “Creatine Monohydrate” value ([10]; pH 7.0, 40 C.°, 10 days) was 0.114 mg/mL, the Creatinine ([10]; pH 7.0, 40 C.°, 10 days) was 0.012 mg/mL and the “Creatine Monohydrate” value ([10]; pH 7.0, 40 C.°, 21 days) was 0.122 mg/mL. For the same compound, the Creatinine ([10]; pH 7.0, 40 C.°, 21 days) was 0.020 mg/ml mg/mL, the “Creatine Monohydrate” value ([10]; pH 7.0, 40 C.°, INITIAL) was 0.00 mg/mL and the Creatinine ([10]; pH 7.0, 40 C.°, INITIAL) was 0.000 mg/mL.

With `CN(CC(=O)O)C(=N)N.O` [Creatine Monohydrate, creatine monohydrate] the “COP Assay” value ([10]; pH 3.0, 25 C.°, 39 Days) was 0.072 mg/mL, the Creatinine ([10]; pH 3.0, 25 C.°, 39 Days) was 0.154 mg/mL and the “COP Assay” value ([10]; pH 3.0, 25 C.°, 3 day) was 0.219 mg/ml mg/mL. The Creatinine ([10]; pH 3.0, 25 C.°, 3 day) was 0.026 mg/mL, the “COP Assay” value ([10]; pH 3.0, 25 C.°, 10 days) was 0.214 mg/mL and the Creatinine ([10]; pH 3.0, 25 C.°, 10 days) was 0.072 mg/ml mg/mL. The “COP Assay” value ([10]; pH 3.0, 25 C.°, 21 days) was 0.151 mg/mL, the Creatinine ([10]; pH 3.0, 25 C.°, 21 days) was 0.111 mg/mL and the “COP Assay” value ([10]; pH 3.0, 25 C.°, INITIAL) was 0.245 mg/mL. For the same compound, the Creatinine ([10]; pH 3.0, 25 C.°, INITIAL) was 0.000 mg/mL, the “COP Assay” value ([10]; pH 3.0, 40 C.°, 39 Days) was 0.030 mg/mL and the Creatinine ([10]; pH 3.0, 40 C.°, 39 Days) was 0.186 mg/mL. The “COP Assay” value ([10]; pH 3.0, 40 C.°, 3 day) was 0.091 mg/ml mg/mL, the Creatinine ([10]; pH 3.0, 40 C.°, 3 day) was 0.125 mg/mL and the “COP Assay” value ([10]; pH 3.0, 40 C.°, 10 days) was 0.036 mg/mL. For the same compound, the Creatinine ([10]; pH 3.0, 40 C.°, 10 days) was 0.177 mg/ml mg/mL, the “COP Assay” value ([10]; pH 3.0, 40 C.°, 21 days) was 0.029 mg/mL and the Creatinine ([10]; pH 3.0, 40 C.°, 21 days) was 0.186 mg/mL. The “COP Assay” value ([10]; pH 3.0, 40 C.°, INITIAL) was 0.245 mg/mL, the Creatinine ([10]; pH 3.0, 40 C.°, INITIAL) was 0.000 mg/mL and the “COP Assay” value ([10]; pH 7.0, 40 C.°, 31 Days) was 0.251 mg/mL. The Creatinine ([10]; pH 7.0, 40 C.°, 31 Days) was 0.068 mg/mL, the “COP Assay” value ([10]; pH 7.0, 40 C.°, 3 day) was 0.242 mg/ml mg/mL and the Creatinine ([10]; pH 7.0, 40 C.°, 3 day) was 0.008 mg/mL. The “COP Assay” value ([10]; pH 7.0, 40 C.°, INITIAL) was 0.257 mg/mL, the Creatinine ([10]; pH 7.0, 40 C.°, INITIAL) was 0.000 mg/mL and the biceps curl strength [11] was “significantly improved”. For the same compound, the chest press strength [11] was “significantly improved”.

— US8445466B2, “Stable aqueous compositions comprising amide-protected bioactive creatine species and uses thereof” (priority 2010, dated 2013)
